Laboratory results published in patent US12558357B2, “Tetrahydroquinazoline derivatives as selective cytotoxic agents” (Merck Sharp & Dohme LLC, priority 2020, dated 2026).

system: PBMCs infected with VSV-G pseudotyped HIV virus (VSV-G/pNLG1-P2A-ΔEnv); assay: cells; type: cell-based, human; conditions: Homo sapiens, PBMC, read-out: EC50 (HIV-TACK cell kill activity)

Row | SMILES | EC50
1 | Nc1ccnn(Cc2ccc3c(c2)NC(=O)N[C@]3(C#CC2CC2)C(F)(F)F)c1=O [Example 24, (S)-7-((5-amino-6-oxopyridazin-1(6H)-yl)methyl)-4-(cyclopropylethynyl)-4-(trifluoromethyl)-3,4-dihydroquinazolin-2(1H)-one] | 0.21 µM
2 | Cc1cn(Cc2ccc3c(c2)NC(=O)N[C@]3(C#CC2CC2)C(F)(F)F)c(=O)c(N)n1 [Example 59, (S)-7-((3-amino-5-methyl-2-oxopyrazin-1(2H)-yl)methyl)-4-(cyclopropylethynyl)-4-(trifluoromethyl)-3,4-dihydroquinazolin-2(1H)-one] | 0.078 µM
3 | O=c1ccncn1Cc1ccc2c(c1)NC(=S)N[C@]2(C#CC1CC1)C(F)(F)F [Example 70, (S)-3-((4-(cyclopropylethynyl)-2-thioxo-4-(trifluoromethyl)-1,2,3,4-tetrahydroquinazolin-7-yl)methyl)pyrimidin-4(3H)-one] | 0.093 µM
4 | O=C1Nc2cc(Cn3cnccc3=O)c(Br)cc2[C@@](C#CC2CC2)(C(F)(F)F)N1 [Example 14, (S)-6-bromo-4-(cyclopropylethynyl)-7-((6-oxopyrimidin-1(6H)-yl)methyl)-4-(trifluoromethyl)-3,4-dihydroquinazolin-2(1H)-one] | 0.031 µM
5 | Nc1nc(Cl)cn(Cc2ccc3c(c2)NC(=O)N[C@]3(C#CC2CC2)C(F)(F)F)c1=O [Example 68, (S)-7-((3-amino-5-chloro-2-oxopyrazin-1(2H)-yl)methyl)-4-(cyclopropylethynyl)-4-(trifluoromethyl)-3,4-dihydroquinazolin-2(1H)-one] | 0.071 µM
6 | O=C1Nc2cc(Cn3ccc(=O)[nH]c3=O)ccc2[C@@](C#CC2CC2)(C(F)(F)F)N1 [Example 54, (S)-1-((4-(cyclopropylethynyl)-2-oxo-4-(trifluoromethyl)-1,2,3,4-tetrahydroquinazolin-7-yl)methyl)pyrimidine-2,4(1H,3H)-dione] | 0.284 µM
7 | Cc1cn(Cc2cc3c(cc2F)[C@@](C#CC2CC2)(C(C)(F)F)NC(=O)N3)c(=O)c(N)n1 [Example 85, (S)-7-((3-amino-5-methyl-2-oxopyrazin-1(2H)-yl)methyl)-4-(cyclopropylethynyl)-4-(1,1-difluoroethyl)-6-fluoro-3,4-dihydroquinazolin-2(1H)-one] | 0.014 µM
8 | Cc1cc(=O)n(Cc2ccc3c(c2)NC(=O)N[C@]3(C#CC2CC2)C(F)(F)F)cn1 [Example 34, (S)-4-(cyclopropylethynyl)-7-((4-methyl-6-oxopyrimidin-1(6H)-yl)methyl)-4-(trifluoromethyl)-3,4-dihydroquinazolin-2(1H)-one] | 0.117 µM
9 | O=C1Nc2cc(Cn3cnc(C4CC4)cc3=O)ccc2[C@@](C#CC2CC2)(C(F)(F)F)N1 [Example 22, (S)-7-((4-cyclopropyl-6-oxopyrimidin-1(6H)-yl)methyl)-4-(cyclopropylethynyl)-4-(trifluoromethyl)-3,4-dihydroquinazolin-2(1H)-one] | 0.288 µM
10 | Cc1cc(=O)n(Cc2cc3c(cc2F)[C@@](C#CC2CC2)(C(F)(F)F)NC(=O)N3)cn1 [Example 43, (S)-4-(cyclopropylethynyl)-6-fluoro-7-((4-methyl-6-oxopyrimidin-1(6H)-yl)methyl)-4-(trifluoromethyl)-3,4-dihydroquinazolin-2(1H)-one] | 0.05 µM
11 | Cc1cc(=O)n(Cc2cc3c(cc2Cl)[C@@](C#CC2CC2)(C(C)(F)F)NC(=O)N3)cn1 [Example 18, (S)-6-chloro-4-(cyclopropylethynyl)-4-(1,1-difluoroethyl)-7-((4-methyl-6-oxopyrimidin-1(6H)-yl)methyl)-3,4-dihydroquinazolin-2(1H)-one] | 0.015 µM
12 | CN1C(=O)Nc2cc(Cn3cnccc3=O)ccc2[C@@]1(C#CC1CC1)C(F)(F)F [Example 73, (S)-4-(cyclopropylethynyl)-3-methyl-7-((6-oxopyrimidin-1(6H)-yl)methyl)-4-(trifluoromethyl)-3,4-dihydroquinazolin-2(1H)-one] | 0.275 µM
13 | N#Cc1ncn(Cc2cc3c(cc2F)[C@@](C#CC2CC2)(C(F)(F)F)NC(=O)N3)c(=O)c1N [Example 69, (S)-5-amino-1-((4-(cyclopropylethynyl)-6-fluoro-2-oxo-4-(trifluoromethyl)-1,2,3,4-tetrahydroquinazolin-7-yl)methyl)-6-oxo-1,6-dihydropyrimidine-4-carbonitrile] | 0.029 µM
14 | Nc1nccn(Cc2cc3c(cc2F)[C@@](C#CC2CC2)(C(F)(F)F)NC(=O)N3)c1=O [Example 2, (S)-7-((3-amino-2-oxopyrazin-1(2H)-yl)methyl)-4-(cyclopropylethynyl)-6-fluoro-4-(trifluoromethyl)-3,4-dihydroquinazolin-2(1H)-one] | 0.015 µM
15 | COCc1cc(=O)n(Cc2ccc3c(c2)NC(=O)N[C@]3(C#CC2CC2)C(F)(F)F)cn1 [Example 31, (S)-4-(cyclopropylethynyl)-7-((4-(methoxymethyl)-6-oxopyrimidin-1(6H)-yl)methyl)-4-(trifluoromethyl)-3,4-dihydroquinazolin-2(1H)-one] | 0.146 µM
16 | N#Cc1cc(=O)n(Cc2ccc3c(c2)NC(=O)N[C@]3(C#CC2CC2)C(F)(F)F)cn1 [Example 27, (S)-1-((4-(cyclopropylethynyl)-2-oxo-4-(trifluoromethyl)-1,2,3,4-tetrahydroquinazolin-7-yl)methyl)-6-oxo-1,6-dihydropyrimidine-4-carbonitrile] | 0.19 µM
17 | CC(F)(F)[C@@]1(C#CC2CC2)NC(=O)Nc2cc(Cn3ccnc(N)c3=O)c(Cl)cc21 [Example 17, (S)-7-((3-amino-2-oxopyrazin-1(2H)-yl)methyl)-6-chloro-4-(cyclopropylethynyl)-4-(1,1-difluoroethyl)-3,4-dihydroquinazolin-2(1H)-one] | 0.017 µM
18 | O=C1Nc2cc(Cn3cnc(CO)cc3=O)c(F)cc2[C@@](C#CC2CC2)(C(F)(F)F)N1 [Example 65, (S)-4-(cyclopropylethynyl)-6-fluoro-7-((4-(hydroxymethyl)-6-oxopyrimidin-1(6H)-yl)methyl)-4-(trifluoromethyl)-3,4-dihydroquinazolin-2(1H)-one] | 0.045 µM
19 | CC(F)(F)[C@@]1(C#CC2CC2)NC(=O)Nc2cc(Cn3ccnc(N)c3=O)ccc21 [Example 53, (S)-7-((3-amino-2-oxopyrazin-1(2H)-yl)methyl)-4-(cyclopropylethynyl)-4-(1,1-difluoroethyl)-3,4-dihydroquinazolin-2(1H)-one] | 0.018 µM
20 | CCN1C(=O)Nc2cc(Cn3cnccc3=O)ccc2[C@@]1(C#CC1CC1)C(F)(F)F [Example 74, (S)-4-(cyclopropylethynyl)-3-ethyl-7-((6-oxopyrimidin-1(6H)-yl)methyl)-4-(trifluoromethyl)-3,4-dihydroquinazolin-2(1H)-one] | 0.263 µM
21 | Nc1cccn(Cc2cc3c(cc2F)[C@@](C#CC2CC2)(C(F)(F)F)NC(=O)N3)c1=O [Example 39, (S)-7-((3-amino-2-oxopyridin-1(2H)-yl)methyl)-4-(cyclopropylethynyl)-6-fluoro-4-(trifluoromethyl)-3,4-dihydroquinazolin-2(1H)-one] | 0.072 µM
22 | Cc1cc2c(cc1Cn1cnccc1=O)NC(=O)N[C@]2(C#CC1CC1)C(F)(F)F [Example 80, (S)-4-(cyclopropylethynyl)-6-methyl-7-((6-oxopyrimidin-1(6H)-yl)methyl)-4-(trifluoromethyl)-3,4-dihydroquinazolin-2(1H)-one] | 0.057 µM
